No end group written: not given here. *: point of attachment. Biotin = O=C1N[C@H]2[C@H](CS[C@H]2CCCCC(=O)*)N1

One assay concerns N terminal peptide. The settings on record: i.p. immunizations days 1, 15, 30, 45, 60; sera day 67; compared to control mice; FIG. 13 B.
For assay [1], the target named is biotinylated N-term peptide (biotin-…) (HIV-1). The assay can be described thus: antigen capture ELISA, plates coated with IgG1 b12, biotinylated peptide detected with streptavidin alkaline phosphatase; reference: scrambled peptide. A general note: In an ELISA, binding on a coated surface is turned into a signal by an enzyme label.
Another assay relates to IgG1b12 antibody. Description: Synthetic gp120 peptide binding to bead-linked IgG1b12, measured by mass spectrometry. More on the design: species or system human. The settings on record: synthetic peptides as starting material; FIG. 5.

Description for IgG1b12 antibody: The antibody was linked to cyanogen-bromide activated sepharose beads (Sigma-Aldrich, Oakville, Ontario). Epitope excision was performed to include potential conformational epitopes. The antibody-bead mixture was incubated with either MN or IIIB HIV-1 gp120 (ImmunoDiagnostics, Inc. Woburn, Mass.) or synthetic HIV-1 gp120 peptides (United Biochemical Research, Inc, Seattle, Wash., USA) for 2 hours under physiological conditions. After several washes, trypsin (Calbiochem-Novabiochem Corporation, San Diego, Calif., USA), or Glu-C (Roche Diagnostics Canada. Laval, Quebec) enzyme digests were performed. Unbound, digested material was washed away. Antibody-bound fragments protected from digestion were analyzed by mass spectrometry. Bead+antibody+peptide complex were spotted on a gold plate along with DHB matrix (Sigma-Aldrich, Oakville, Ontario) (3,4). The sample was analyzed on the prototypic QqTOF mass spectrometer by matrix-assisted laser desorption/ionization.
Epitope mapping experiments were performed using synthetic peptides. One peptide, the “N-term” (amino terminus) peptide was tested for it's binding to IgG1b12. The N-term sequence is as follows: [sequence]. A second peptide covered the CD4 binding site, including the isoleucine (I) residue.
Description for N terminal peptide: For immunogenicity studies, 4 groups of 4 BALB/c mice (16 total) were immunized intraperitoneally (i.p.) 5 times over 2 months. The first group of mice received PBS plus Freund's adjuvant in each immunization, and the second group received 10-50 kg gp120. The third and fourth groups received 10 μg biotinylated peptide (group 3 received N-term, group 4, scrambled) linked to avidin.
ELISAs to detect Ab responses in mice were carried out by coating 96 well plates with 2.5 μg/ml gp120 or 5 μg/ml biotinylated peptide overnight at 4° C. Blood was obtained by venous tail puncture, serum was obtained by collecting the supernatant of blood that had been incubated at 4° C. for one hour and centrifuged in an Eppendorf microcentrifuge (Centrifuge 5417C, Brinkmann Instruments, Ltd. Mississauga, ON) twice for 30 minutes at maximum speed. Serum was diluted at 1/50 down in doubling dilutions and incubated on plates for 2 hours at 37° C., washed, and HRP-goat anti-mouse secondary antibody (Southern Biotechnology Associates, Inc., Birmingham, Ala.) was added. ABTS substrate (Roche Diagnostics Canada, Laval, PQ) was used for detection. Plates were read at 405 nm on the Spectramax Plus.

As for “Biotin-LWVTVYYGVPVWKEATTTLFCASDAK [Nterm peptide]”, the “immunogenicity in the mouse model” value in the assay with gp120 (BALB/c mice, biotinylated peptide linked to avidin, i.p.) is reported as “immunogenic”. In the assay with gp120 (i.p. immunizations days 1, 15, 30, 45, 60, sera day 67, compared to control mice, FIG. 13 A), the “serum antibodies binding whole gp120” value was “contains antibodies capable of binding both whole gp120 and N-terminal peptide”. In addition, in the assay with N terminal peptide, the “serum antibodies binding N-terminal peptide” value was “contains antibodies capable of binding both whole gp120 and N-terminal peptide”. For the same substance, the “binding to IgG1 b12 relative to the scrambled peptide” value in the assay on IgG1 b12 (antigen capture ELISA) came to 4 times. Further, the “peptide binding to IgG1 b12” value in the assay with IgG1 b12 (plates coated with 2.5 μg/ml IgG1 b12, serially diluted biotinylated peptide, FIG. 11) was “bound IgG1 b12, and this binding was dose dependant”.

In assay [1], IgG1b12 human monoclonal antibody showed a fold binding against the scrambled peptide of 4 times.

Take “KLWVTVYYGVPVWKEATTTLFCASDAKAYDTE [amino terminus]”: in the assay with IgG1b12 antibody, the “recognition of synthetic peptide by IgG1b12” value is recorded as “specifically recognizes”.

Values taken from patent publication US20080146499A1, “Identification of the Precise Amino Acid Sequence of the Epitope Recognized by the Potent Neutralizing Human Anti-Hiv-1 Monoclonal Antibody Igg1b12” (priority 2005, published 2008).
